# PMC8786932, “Bicyclic azetidines target acute and chronic stages of Toxoplasma gondii by inhibiting parasite phenylalanyl t-RNA synthetase” (Nature Communications, 2022)
# “And” between values parts separate entries of the source, which are not always exact repeats. Equal values may be shown once.
# Legend:
# recombinant HsPheRS = molecular target: T1, recombinant HsPheRS (Homo sapiens, UniProt Q9Y285); experiment: Malachite green aminoacylation enzyme assay, HsPheRS; settings: for Hu PheRS enzyme assay raw signal: replicates
# T1 sequence (Q9Y285 1-508): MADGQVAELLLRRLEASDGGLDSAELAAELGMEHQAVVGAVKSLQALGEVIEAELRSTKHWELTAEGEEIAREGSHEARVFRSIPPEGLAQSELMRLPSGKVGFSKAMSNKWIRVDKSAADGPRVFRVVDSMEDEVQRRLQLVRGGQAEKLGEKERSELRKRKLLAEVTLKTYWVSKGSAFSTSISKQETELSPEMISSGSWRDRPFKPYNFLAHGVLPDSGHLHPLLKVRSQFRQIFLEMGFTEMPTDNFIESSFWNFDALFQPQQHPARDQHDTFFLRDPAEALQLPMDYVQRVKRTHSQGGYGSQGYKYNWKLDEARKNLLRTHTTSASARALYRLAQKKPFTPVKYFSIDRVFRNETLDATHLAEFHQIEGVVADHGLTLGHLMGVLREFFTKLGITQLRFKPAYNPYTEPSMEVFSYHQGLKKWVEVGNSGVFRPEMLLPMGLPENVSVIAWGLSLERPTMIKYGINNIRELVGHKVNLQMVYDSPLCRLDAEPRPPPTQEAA
# T1 sequence (Q9NSD9 1-589 partner): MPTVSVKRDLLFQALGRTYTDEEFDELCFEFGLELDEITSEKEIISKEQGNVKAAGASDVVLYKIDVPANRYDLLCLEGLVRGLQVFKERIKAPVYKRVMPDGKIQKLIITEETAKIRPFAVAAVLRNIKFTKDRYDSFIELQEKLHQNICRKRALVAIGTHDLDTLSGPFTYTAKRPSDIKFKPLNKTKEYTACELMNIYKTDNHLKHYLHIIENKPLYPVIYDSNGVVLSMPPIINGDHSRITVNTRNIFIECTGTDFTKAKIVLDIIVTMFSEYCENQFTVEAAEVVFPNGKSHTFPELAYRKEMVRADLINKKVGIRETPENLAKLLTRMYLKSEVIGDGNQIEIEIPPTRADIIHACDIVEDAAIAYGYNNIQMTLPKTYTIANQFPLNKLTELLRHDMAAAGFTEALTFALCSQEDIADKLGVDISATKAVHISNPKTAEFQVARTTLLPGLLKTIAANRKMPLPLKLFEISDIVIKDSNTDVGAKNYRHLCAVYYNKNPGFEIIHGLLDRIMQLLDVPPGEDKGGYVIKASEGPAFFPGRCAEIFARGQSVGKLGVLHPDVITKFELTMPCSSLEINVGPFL
# TgPheRS[L497I] = molecular target: T2, TgPheRS[L497I] (Toxoplasma gondii, UniProt A0A125YPN6, L497I); experiment: Enzyme assay, TgPheRS L497I; assay type: biochemical; settings: for enzyme assay readout (raw): L497I
# T2 sequence (A0A125YPN6 1-525 L497I): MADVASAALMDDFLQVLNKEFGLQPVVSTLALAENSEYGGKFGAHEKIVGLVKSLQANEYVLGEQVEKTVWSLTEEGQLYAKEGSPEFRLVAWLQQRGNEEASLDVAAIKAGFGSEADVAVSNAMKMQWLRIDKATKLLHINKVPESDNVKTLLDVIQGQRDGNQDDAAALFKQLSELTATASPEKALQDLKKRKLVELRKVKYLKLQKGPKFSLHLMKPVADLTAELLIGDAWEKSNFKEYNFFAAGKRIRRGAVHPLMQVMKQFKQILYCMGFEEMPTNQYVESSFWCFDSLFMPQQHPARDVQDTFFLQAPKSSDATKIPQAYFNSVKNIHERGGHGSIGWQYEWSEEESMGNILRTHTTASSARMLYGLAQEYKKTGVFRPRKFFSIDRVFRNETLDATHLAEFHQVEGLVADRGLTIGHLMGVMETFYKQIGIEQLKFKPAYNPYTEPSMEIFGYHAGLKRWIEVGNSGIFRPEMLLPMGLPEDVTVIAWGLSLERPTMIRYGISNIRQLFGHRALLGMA
# T2 sequence (S8EZ50 1-675 partner): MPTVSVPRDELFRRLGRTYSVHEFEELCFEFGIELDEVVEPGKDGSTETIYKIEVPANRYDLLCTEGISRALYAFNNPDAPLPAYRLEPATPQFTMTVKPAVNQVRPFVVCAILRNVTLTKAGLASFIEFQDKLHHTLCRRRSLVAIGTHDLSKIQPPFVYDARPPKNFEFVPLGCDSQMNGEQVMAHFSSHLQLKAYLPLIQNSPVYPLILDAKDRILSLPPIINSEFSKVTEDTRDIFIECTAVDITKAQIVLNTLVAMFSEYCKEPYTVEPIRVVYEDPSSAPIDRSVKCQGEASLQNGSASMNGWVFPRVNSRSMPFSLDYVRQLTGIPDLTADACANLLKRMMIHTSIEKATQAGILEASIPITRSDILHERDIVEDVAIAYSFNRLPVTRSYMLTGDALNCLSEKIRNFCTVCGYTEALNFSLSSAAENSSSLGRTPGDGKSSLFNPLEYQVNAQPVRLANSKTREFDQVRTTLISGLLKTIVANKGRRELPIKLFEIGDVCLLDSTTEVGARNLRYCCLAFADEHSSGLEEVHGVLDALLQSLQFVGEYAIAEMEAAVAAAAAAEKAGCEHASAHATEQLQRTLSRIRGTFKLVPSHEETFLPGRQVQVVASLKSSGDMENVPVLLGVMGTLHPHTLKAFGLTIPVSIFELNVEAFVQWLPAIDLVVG
# TgPheRS V262A M484I = molecular target: T3, TgPheRS V262A M484I (Toxoplasma gondii, UniProt A0A125YPN6, M484I/V262A); experiment: Enzyme assay, TgPheRS V262A M484I double mutant; assay type: biochemical; settings: for enzyme assay readout (raw): V262A / M484I
# T3 sequence (A0A125YPN6 1-525 V262A/M484I): T2 sequence (A0A125YPN6 1-525 L497I)
# T3 sequence (S8EZ50 1-675 partner): T2 sequence (S8EZ50 1-675 partner)
smiles,measurement,setting,value
COc1ccc(NC(=O)N2CCCCN3[C@H](CN(C)C)[C@H](c4ccc(C#Cc5ccccc5)cc4)[C@@H]3C2)cc1 [BRD7929],IC50,recombinant HsPheRS,22300 nM
same,Hu PheRS enzyme assay raw signal,recombinant HsPheRS; BRD7929 0.000001 μM,0.7213 and 0.8235 and 0.7680
same,Hu PheRS enzyme assay raw signal,recombinant HsPheRS; BRD7929 0.000010 μM,0.6210 and 0.7246 and 0.7585
same,Hu PheRS enzyme assay raw signal,recombinant HsPheRS; BRD7929 0.000100 μM,0.6366 and 0.8166 and 0.8094
same,Hu PheRS enzyme assay raw signal,recombinant HsPheRS; BRD7929 0.001000 μM,0.7178 and 0.7568 and 0.6293
same,Hu PheRS enzyme assay raw signal,recombinant HsPheRS; BRD7929 0.010000 μM,0.4951 and 0.5827 and 0.6166
same,Hu PheRS enzyme assay raw signal,recombinant HsPheRS; BRD7929 0.100000 μM,0.5035 and 0.5467 and 0.5776
same,Hu PheRS enzyme assay raw signal,recombinant HsPheRS; BRD7929 1.000000 μM,0.4827 and 0.4553 and 0.5046
same,Hu PheRS enzyme assay raw signal,recombinant HsPheRS; BRD7929 10.000000 μM,0.4350 and 0.4477 and 0.4390
same,Hu PheRS enzyme assay raw signal,recombinant HsPheRS; BRD7929 100.000000 μM,0.4107 and 0.4228 and 0.4405
same,enzyme assay readout (raw),TgPheRS[L497I]; 0.000005 μM,0.3299 and 0.3217 and 0.3007
same,enzyme assay readout (raw),TgPheRS[L497I]; 0.000050 μM,0.3157 and 0.3171 and 0.3115
same,enzyme assay readout (raw),TgPheRS[L497I]; 0.000500 μM,0.3154 and 0.3074 and 0.3183
same,enzyme assay readout (raw),TgPheRS[L497I]; 0.005000 μM,0.2831 and 0.3060 and 0.3128
same,enzyme assay readout (raw),TgPheRS[L497I]; 0.050000 μM,0.3012 and 0.2839 and 0.2985
same,enzyme assay readout (raw),TgPheRS[L497I]; 0.500000 μM,0.2641 and 0.2615 and 0.2741
same,enzyme assay readout (raw),TgPheRS[L497I]; 5.000000 μM,0.2401 and 0.2141 and 0.2271
same,enzyme assay readout (raw),TgPheRS[L497I]; 50.000000 μM,0.1719 and 0.1728 and 0.1711
same,IC50,"TgPheRS[L497I]; Table S4, L497I, read-out: IC50 (enzyme inhibition)",1320 nM
same,IC50,"TgPheRS V262A M484I; Table S4, V262A-M484I, read-out: IC50 (enzyme inhibition)",197 nM
same,enzyme assay readout (raw),TgPheRS V262A M484I; 0.000005 μM,0.3462 and 0.3680 and 0.4006
same,enzyme assay readout (raw),TgPheRS V262A M484I; 0.000050 μM,0.3131 and 0.3315 and 0.3158
same,enzyme assay readout (raw),TgPheRS V262A M484I; 0.000500 μM,0.3040 and 0.3143 and 0.2881
same,enzyme assay readout (raw),TgPheRS V262A M484I; 0.005000 μM,0.2789 and 0.2890 and 0.2929
same,enzyme assay readout (raw),TgPheRS V262A M484I; 0.050000 μM,0.2807 and 0.2760 and 0.2780
same,enzyme assay readout (raw),TgPheRS V262A M484I; 0.500000 μM,0.2333 and 0.2480 and 0.2628
same,enzyme assay readout (raw),TgPheRS V262A M484I; 5.000000 μM,0.2051 and 0.1829 and 0.2098
same,enzyme assay readout (raw),TgPheRS V262A M484I; 50.000000 μM,0.1004 and 0.1152 and 0.1172
